In patent US20250052985A1, “SYSTEM AND METHOD FOR QUANTITATIVE PHASE IMAGING FOR MULTI-PARAMETRIC SCREENING OF TUMOR THERAPY RESPONSE” (UNIVERSITY OF UTAH RESEARCH FOUNDATION, priority 2023, published 2025):
Values joined by “and” are separate entries in the source; they are usually repeats but may differ in a detail not shown here. Equal entries are not always repeated. Where two headings read alike, the source gives them in different places.

Key:
BT-474 cells [1] = assay: cells; conditions: for Max Asymptote / Min Asymptote: BT-474, 4-parameter Hill fit of mean SGR vs concentration, one line per replicate; for EC50: Homo sapiens
Procedure, shortened: (§1)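 EC50 comes from 4-parameter Hill fits of average specific growth rate (mass accumulation) versus dose; a response is called only when the fit beats a flat line by F-test at p<0.01. Growth was tracked by differential phase contrast QPI for 24 or 72 h post-equilibration, followed by CTG ATP readout.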

MCF-7 cells [2] = assay: cells; conditions: for Max Asymptote / Min Asymptote: MCF-7, 4-parameter Hill fit of mean SGR vs concentration, one line per replicate; for Hill Slope: MCF-7, Hill fit; for EC50: Homo sapiens
Procedure, shortened: as §1

BT-474 cells [3] = assay: CellTiter-Glo (CTG) ATP viability assay, BT-474; assay type: cell-based
Procedure, shortened: (§2)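 Cell viability was read as ATP content by CellTiter-Glo luminescence after replacing media with reagent, shaking 20 min and resting 10 min. Signal was normalized to solvent control, and a 4-parameter Hill fit to the dose response gave EC50 and depth of response.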

MCF-7 cells [4] = assay: CellTiter-Glo (CTG) ATP viability assay, MCF-7; assay type: cell-based; conditions: for Min Asymptote: MCF-7, Hill fit of luminescence normalized to solvent control, one line per replicate
Procedure, shortened: as §2

MDA-MB-231 cells = assay: CellTiter-Glo (CTG) ATP viability assay, MDA-MB-231; assay type: cell-based; conditions: for EC50: Homo sapiens
Description: CTG (e.g., read by the CTG reader 115) is a cell viability assay that quantifies the amount of ATP present at the end of an experiment as an indicator of the number of live cells. The electronic controller 155 measures ATP content in each condition as a readout by a luminescent signal, which is normalized by the luminescence of the control (e.g., a control well) to determine cell viability relative to on-plate controls. In some embodiments, the CTG assay is performed by first removing 100 μL of media from each well on the well-plate 105, which is then replaced with an equal amount of CellTiter-Glo reagent (e.g., Promega, G7572). Assayed plates may be shaken at 500 RPM for 20 minutes and allowed to rest for 10 minutes. In some instances, 100 μL of volume from each well is transferred to a white 96-well plate (e.g., Perkin Elmer, 6005680). The electronic controller 155 collects luminescence data from each well using an Envision plate reader (e.g., Perkin Elmer) and normalized against the solvent control to measure ATP content. The electronic controller 155 fits a 4-parameter hill curve to the dose response to determine the EC50 and depth of response.

SMILES: C[C@]12CC[C@@H]3c4ccc(O)cc4C[C@@H](CCCCCCCCC[S+]([O-])CCCC(F)(F)C(F)(F)F)[C@H]3[C@@H]1CC[C@@H]2O (stereo partly drawn) [Fulvestrant]
- Max Asymptote (BT-474 cells [1]; 24 h QPI): 0.01059
- Min Asymptote (BT-474 cells [1]; 24 h QPI): 0.007383
- Hill Slope (BT-474 cells [1]; 24 h QPI, BT-474, Hill fit): 0.5448
- Max Asymptote (BT-474 cells [1]; 72 h QPI): 0.006153 and 0.002199 and 0.003561
- Min Asymptote (BT-474 cells [1]; 72 h QPI): 0.009854 and 0.008492 and 0.009456
- DoR QPI (BT-474 cells [1]; BT-474 cell line, depth of response, QPI): 0.6
- ToR 20 μM (BT-474 cells [1]; BT-474 cell line, time of response at 20 μM): 28.9
- EC50 (BT-474 cells [1]; BT-474, 24 h, read-out: log10(EC50), 24 h QPI, BT-474, Hill fit (converted), EC50 in μM per Table 1): 13.7 µM
- EC50 (BT-474 cells [1]; BT-474, read-out: EC50, QPI, BT-474 cell line, QPI growth rate): 11.6 µM
- EC50 (BT-474 cells [1]; BT-474, read-out: EC50, SD, BT-474 cell line, EC50 of the standard deviation): 8.17 µM
- Max Asymptote (MCF-7 cells [2]; 24 h QPI): 0.04169
- Min Asymptote (MCF-7 cells [2]; 24 h QPI): 0.02021
- Hill Slope (MCF-7 cells [2]; 24 h QPI): 0.4537
- Max Asymptote (MCF-7 cells [2]; 72 h QPI): 0.01656 and 0.01573
- Min Asymptote (MCF-7 cells [2]; 72 h QPI): 0.02377 and 0.02811
- Hill Slope (MCF-7 cells [2]; 72 h QPI): 0.5562 and 0.7449
- EC50 (MCF-7 cells [2]; MCF7, 24 h, read-out: log10(EC50), 24 h QPI, MCF-7, Hill fit (converted), EC50 in μM per Table 1): 0.000875 µM
- EC50 (MCF-7 cells [2]; MCF7, read-out: EC50, QPI, MCF-7 cell line, QPI growth rate): 0.2 µM
- DoR QPI (MCF-7 cells [2]; MCF-7 cell line, depth of response, QPI): 0.4
- ToR 20 μM (MCF-7 cells [2]; MCF-7 cell line, time of response at 20 μM): 23.2
- cluster mass over time (MCF-7 cells [2]; small cluster of MCF-7 cells, 20 μM, 10 h to 72 h): grow slowly at the beginning and end the experiment with a lower mass than they started with
- Min Asymptote (BT-474 cells [3]; 72 h CTG, BT-474, Hill fit of luminescence normalized to solvent control, one line per replicate): 0.1608 (2×) and 0.8009
- DoR CTG (BT-474 cells [3]; BT-474 cell line, depth of response, CellTiter-Glo): 0.6
- EC50 (BT-474 cells [3]; Homo sapiens, BT-474, BT-474 cell line, CellTiter-Glo, read-out: EC50, CTG): 1340 µM
- Min Asymptote (MCF-7 cells [4]; 24 h CTG): 0.5189 and 0.9446
- Min Asymptote (MCF-7 cells [4]; 72 h CTG): 0.76 and 0.7073 and 0.6956
- EC50 (MCF-7 cells [4]; Homo sapiens, MCF7, MCF-7 cell line, CellTiter-Glo, read-out: EC50, CTG (converted)): 0.5 µM
- DoR CTG (MCF-7 cells [4]; MCF-7 cell line, depth of response, CellTiter-Glo): 0.3
- Hill Slope (MDA-MB-231 cells; 72 h CTG, MDA-MB-231, Hill fit): 0.7641
- Min Asymptote (MDA-MB-231 cells; 72 h CTG, MDA-MB-231, Hill fit of luminescence normalized to solvent control, one line per replicate): 0.01999
- EC50 (MDA-MB-231 cells; MDA-MB-231, 72 h, 72 h CTG, MDA-MB-231, Hill fit, read-out: log10(EC50) (converted)): 31.4 µM
- EC50 (MDA-MB-231 cells; MDA-MB-231, MDA-MB-231 cell line, CellTiter-Glo, read-out: EC50, CTG): 31.4 µM
- DoR CTG (MDA-MB-231 cells; MDA-MB-231 cell line, depth of response, CellTiter-Glo): 1.0
